# In US11459332B2, “Substituted 2-azabicyclo[3.1.0]hexanes as TRK kinases inhibitors” (FOCHON BIOSCIENCES, LTD., priority 2018, dated 2022):
# What was measured:
# Assay type in all cases: cell-based
# KM12 cells = KM12 cells proliferation inhibition (MTS), mechanism-based TRK assay; conditions: Homo sapiens, 72 h
# Description: (§1) MTS testing kit was purchased from Promega (Madison, Wis., USA). The RPMI-1640, Fetal bovine serum and Penicillin-Streptomycin were purchased from Gibco (San Francisco, Calif., USA). Dimethyl sulfoxide (DMSO) and Puromycin were purchased from Sigma (St. Louis, Mo., USA). Mouse interleukin-3 (IL-3) was purchased from Cell signaling Technology (Boston, Mass., USA).
# To investigate whether a compound is able to inhibit the activity of TRK in cells, a mechanism-based assay using KM12 cells was developed. In this assay, inhibition of TRK was detected by the inhibition of KM12 cells proliferation. KM12 cells were cultured in culture flasks to 40-80% confluence in RPMI-1640 plus 10% fetal bovine serum. Cells were collected and plated onto 96-well plates at 1000 cells/well. Plates were incubated at 37° C., with 5% CO2 for 4 h. Compounds were added to the plates, the final compound concentrations were […], 123.5, 41.2, 13.7, 4.6 and 1.5 nM. Place plates at 37° C., with 5% CO2 for KM12 cells 72 h. 20 μl MTS/100 μl medium mixture solution were added to each well and incubate the plates for exactly 2 h. Stop the reaction by adding 25 μl 10% SDS per well. Measure absorbance at 490 nm and 650 nm (reference wavelength). IC50 was calculated using GraphPad Prism 5.0.
# ETV6-TRKC = target: T1, ETV6-TRKC (Homo sapiens, UniProt Q16288); test: Engineered Ba/F3 cell proliferation inhibition (MTS), ETV6-TRKC; conditions: Ba/F3-ETV6-TRKC cells, 72 h
# T1 construct: ETV6 (fusion partner, N-terminal part); expressed in transfected cells; the other entry of the earlier key: ETV6 (P41212, Transcription factor ETV6)
# Description: as §1
# (§2) To investigate whether a compound is able to inhibit the activity of TRK fusion mutation in cells, a mechanism-based assay using engineered Ba/F3 cell lines stably overexpressing oncogenic rearrangement or gene mutation of TRK (TPM3-TRKA, TPM3-TRKA-G595R, AFAP1-TRKB, ETV6-TRKC and ETV6-TRKC-G623R) were developed. In this assay, inhibition of TRK fusion mutation was detected by the cell proliferation inhibition of engineered Ba/F3 cells. Engineered Ba/F3 cells were cultured in culture flasks to 40-80% confluence in RPMI-1640 supplemented with 10% fetal bovine serum, 2 ug/mL puromycin. Cells were collected and plated onto 96-well plates at desired cell density (Ba/F3-TPM3-TRKA: 3×10^4/mL, Ba/F3-TPM3-TRKA-G595R: 1×10^5/mL, Ba/F3-AFAP1-TRKB: 1×10^5/mL, Ba/F3-ETV6-TRKC: 3×10^4/mL, Ba/F3-ETV6-TRKC-G623R: 3×10^4/mL). Plates were incubated at 37° C., with 5% CO2 for 4 h. Compounds were then added to the plates with the final compound concentrations of 10000, 3333, 1111, […], 123, 41.2, 13.7, 4.6 and 1.5 nM. Plates were incubated at 37° C., with 5% CO2 for 72 h. A mixture of 20 μl MTS/100 μl medium were added to each well and the plates were incubated at 37° C., with 5% CO2 for exactly 2 h. The reaction was stopped by adding 25 μl of 10% SDS per well. The absorbance was measured at 490 nm and 650 nm (reference wavelength). IC50 was calculated using GraphPad Prism 5.0 software.
# TPM3-TRKA = target: T2, TPM3-TRKA (Homo sapiens, UniProt P04629); test: Engineered Ba/F3 cell proliferation inhibition (MTS), TPM3-TRKA; conditions: Ba/F3-TPM3-TRKA cells, 72 h
# T2 construct: TPM3 (fusion partner, N-terminal part); expressed in transfected cells; the other entry of the earlier key: TPM3 (P06753, Tropomyosin alpha-3 chain)
# Description: as §1, §2
# TPM3-TRKA-G595R = target: T3, TPM3-TRKA-G595R (Homo sapiens, UniProt P04629, G595R); test: Engineered Ba/F3 cell proliferation inhibition (MTS), TPM3-TRKA-G595R; conditions: Ba/F3-TPM3-TRKA-G595R cells, 72 h
# T3 construct: TPM3 (fusion partner, N-terminal part); expressed in transfected cells; the other entry of the earlier key: TPM3 (P06753, Tropomyosin alpha-3 chain)
# Description: as §1, §2
# T2 sequence (P04629 510-796 limits assumed): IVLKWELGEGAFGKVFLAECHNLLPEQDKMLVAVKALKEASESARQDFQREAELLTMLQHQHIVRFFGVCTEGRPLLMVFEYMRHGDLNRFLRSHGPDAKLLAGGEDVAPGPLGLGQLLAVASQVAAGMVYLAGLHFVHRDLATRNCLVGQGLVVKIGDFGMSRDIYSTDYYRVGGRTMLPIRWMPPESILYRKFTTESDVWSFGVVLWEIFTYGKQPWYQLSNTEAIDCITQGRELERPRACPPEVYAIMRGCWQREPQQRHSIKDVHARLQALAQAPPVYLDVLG
# T1 sequence (Q16288 530-825 isoform Q16288-3 limits assumed): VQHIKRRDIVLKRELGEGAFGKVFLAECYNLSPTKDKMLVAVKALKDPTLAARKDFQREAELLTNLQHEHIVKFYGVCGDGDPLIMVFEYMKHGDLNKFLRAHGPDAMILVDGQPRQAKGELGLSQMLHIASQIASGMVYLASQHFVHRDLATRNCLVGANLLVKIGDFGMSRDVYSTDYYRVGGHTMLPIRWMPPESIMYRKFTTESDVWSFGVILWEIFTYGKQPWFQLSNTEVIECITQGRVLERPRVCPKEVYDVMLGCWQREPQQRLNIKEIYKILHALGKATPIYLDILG
# T3 sequence (P04629 510-796 G595R limits assumed): as the sequence (P04629 510-796 limits assumed) above, with G86R counted along it
SMILES,IC50 (ETV6-TRKC),IC50 (TPM3-TRKA),IC50 (TPM3-TRKA-G595R),IC50 (KM12 cells)
"O=C(Nc1cnn2ccc(N3CC[C@H]4C[C@]43c3cc(F)ccc3F)nc12)N1CC[C@@H](F)C1 [Example 11, (R)-N-(5-((1R,5S)-1-(2,5-difluorophenyl)-2-azabicyclo[3.1.0]hexan-2-yl)pyrazolo [1,5-a]pyrimidin-3-yl)-3-fluoropyrrolidine-l-carboxamide]",–,–,–,53 nM
"O=C(Nc1cnc2ccc(N3CC[C@H]4C[C@]43c3cc(F)ccc3F)nn12)N1CC[C@H](O)C1 [Example 4, (S)—N-(6-((1R,5S)-1-(2,5-difluorophenyl)-2-azabicyclo[3.1.0]hexan-2-yl)imidazo[1,2-b]pyridazin-3-yl)-3-hydroxypyrrolidine-1-carboxamide]",1 nM,5 nM,–,2 nM
"CO[C@H]1CCN(C(=O)Nc2cnn3ccc(N4CC[C@H]5C[C@]54c4cc(F)ccc4F)nc23)C1 [Example 9, (S)-N-(5-((1R,5S)-1-(2,5-difluorophenyl)-2-azabicyclo[3.1.0]hexan-2-yl)pyrazolo [1,5-a]pyrimidin-3-yl)-3-methoxypyrrolidine-1-carboxamide]",4 nM,–,–,42 nM
"O=C(Nc1cnn2ccc(N3CC[C@H]4C[C@]43c3cc(F)ccc3F)nc12)N1CCC(F)C1 (stereo in doubt) [Example 10, (R)-N-(5-((1R,5S)-1-(2,5-difluorophenyl)-2-azabicyclo[3.1.0]hexan-2-yl)pyrazolo [1,5-a]pyrimidin-3-yl)-3-fluoropyrrolidine-1-carboxamide]",2 nM,–,–,23 nM
"O=C(Nc1cnc2ccc(N3CC[C@H]4C[C@]43c3cc(F)ccc3F)nn12)N1CC[C@@H](O)C1 [Example 8, (R)-N-(6-((1R,5S)-1-(2,5-difluorophenyl)-2-azabicyclo[3.1.0]hexan-2-yl)imidazo[1,2-b]pyridazin-3-yl)-3-hydroxypyrrolidine-1-carboxamide]",5 nM,5 nM,–,25 nM
"O=C(Nc1cnn2ccc(N3CC[C@H]4C[C@]43c3cc(F)ccc3Cl)nc12)N1CC[C@H](O)C1 [Example 2, (S)—N-(5-((1R,5S)-1-(2-chloro-5-fluorophenyl)-2-azabicyclo[3.1.0]hexan-2-yl)pyrazolo[1,5-a]pyrimidin-3-yl)-3-hydroxypyrrolidine-1-carboxamide]",7 nM,44 nM,–,42 nM
"O=C(Nc1cnn2ccc(N3CC[C@H]4C[C@]43c3cc(F)ccc3Cl)nc12)N1CC[C@@H](O)C1 [Example 3, (R)—N-(5-((1R,5S)-1-(2-chloro-5-fluorophenyl)-2-azabicyclo[3.1.0]hexan-2-yl)pyrazolo[1,5-a]pyrimidin-3-yl)-3-hydroxypyrrolidine-1-carboxamide]",17 nM,47 nM,–,36 nM
"O=C(Nc1cnn2ccc(N3CC[C@H]4C[C@]43c3cc(F)ccc3F)nc12)N1CCC(F)(F)C1 [Example 12, N-(5-((1R,5S)-1-(2,5-difluorophenyl)-2-azabicyclo [3.1.0]hexan-2-yl)pyrazolo[1,5-a]pyrimidin-3-yl)-3,3-difluoropyrrolidine-1-carboxamide]",9 nM,–,–,2 nM
"O=C1c2ccccc2CN1c1cnn2ccc(N3CC[C@H]4C[C@]43c3cc(F)ccc3F)nc12 [Example 28, 2-(5-((1R,5S)-1-(2,5-difluorophenyl)-2-azabicyclo [3.1.0]hexan-2-yl)pyrazolo[1,5-a]pyrimidin-3-yl)isoindolin-1-one]",2 nM,19 nM,–,–
"CC(C)c1nnc(-c2cnn3ccc(N4CC[C@H]5C[C@]54c4cc(F)ccc4F)nc23)o1 [Example 5, 2-(5-((1R,5S)-1-(2,5-difluorophenyl)-2-azabicyclo[3.1.0]hexan-2-yl)pyrazolo[1,5-a]pyrimidin-3-yl)-5-isopropyl-1,3,4-oxadiazole]",–,6 nM,40 nM,9 nM

# More lines, main results first:
IC50 (ETV6-TRKC),IC50 (TPM3-TRKA),IC50 (TPM3-TRKA-G595R),SMILES,IC50 (KM12 cells)
16 nM,–,–,"O=C(Nc1cnn2ccc(N3CC[C@H]4C[C@]43c3cc(F)ccc3F)nc12)c1ccc(Cl)cn1 [Example 24, 5-chloro-N-(5-((1R,5S)-1-(2,5-difluorophenyl)-2-azabicyclo[3.1.0]hexan-2-yl)pyrazolo[1,5-a]pyrimidin-3-yl)picolinamide]",38 nM
1 nM,1 nM,18 nM,"O=C(Nc1cnn2ccc(N3CC[C@H]4C[C@]43c3cc(F)ccc3F)nc12)c1ccccn1 [Example 15, N-(5-((1R,5S)-1-(2,5-difluorophenyl)-2-azabicyclo [3.1.0]hexan-2-yl)pyrazolo[1,5-a]pyrimidin-3-yl) picolinamide]",1 nM
1 nM,33 nM,–,"Cc1ccc(C(=O)Nc2cnn3ccc(N4CC[C@H]5C[C@]54c4cc(F)ccc4F)nc23)nc1 [Example 18, N-(5-((1R,5S)-1-(2,5-difluorophenyl)-2-azabicyclo [3.1,0]hexan-2-yl)pyrazolo[1,5-a]pyrimidin-3-yl)-5-methylpicolinamide]",2 nM
1 nM,10 nM,–,"O=C(Nc1cnn2ccc(N3CC[C@H]4C[C@]43c3cc(F)ccc3F)nc12)c1ncc(F)cn1 [Example 21, N-(5-((1R,5S)-1-(2,5-difluorophenyl)-2-azabicyclo [3.1.0]hexan-2-yl)pyrazolo[1,5-a]pyrimidin-3-yl)-5-fluoropyrimidine-2-carboxamide]",24 nM
1 nM,2 nM,–,"O=C(Nc1cnn2ccc(N3CC[C@H]4C[C@]43c3cc(F)ccc3F)nc12)c1ccc(F)cn1 [Example 19, N-(5-((1R,5S)-1-(2,5-difluorophenyl)-2-azabicyclo [3.1.0]hexan-2-yl)pyrazolo[1,5-a]pyrimidin-3-yl)-5-fluoropicolinamide]",1 nM
3 nM,3 nM,–,"O=C(Nc1cnn2ccc(N3CC[C@H]4C[C@]43c3cc(F)ccc3F)nc12)N1CC[C@@H](O)C1 [Example 7, (R)-N-(5-((1R,5S)-1-(2,5-difluorophenyl)-2-azabicyclo[3.1.0]hexan-2-yl)pyrazolo[1,5-a]pyrimidin-3-yl)-3-hydroxypyrrolidine-1-carboxamide]",20 nM
1 nM,2 nM,–,"Cc1cccnc1C(=O)Nc1cnn2ccc(N3CC[C@H]4C[C@]43c3cc(F)ccc3F)nc12 [Example 17, N-(5-((1R,5S)-1-(2,5-difluorophenyl)-2-azabicyclo [3.1.0]hexan-2-yl)pyrazolo[1,5-a]pyrimidin-3-yl)-3-methylpicolinamide]",1 nM
1 nM,1 nM,5 nM,"Cc1cccc(C(=O)Nc2cnn3ccc(N4CC[C@H]5C[C@]54c4cc(F)ccc4F)nc23)n1 [Example 16, N-(5-((1R,5S)-1-(2,5-difluorophenyl)-2-azabicyclo [3.1.0]hexan-2-yl)pyrazolo[1,5-a]pyrimidin-3-yl)-6-methylpicolinamide]",1 nM
1 nM,14 nM,67 nM,"Cc1cnc(C(=O)Nc2cnn3ccc(N4CC[C@H]5C[C@]54c4cc(F)ccc4F)nc23)nc1 [Example 20, N-(5-((1R,5S)-1-(2,5-difluorophenyl)-2-azabicyclo [3.1.0]hexan-2-yl)pyrazolo[1,5-a]pyrimidin-3-yl)-5-methylpyrimidine-2-carboxamide]",6 nM
